Reference: patent EP4717267A1, “SYNERGISTIC COMBINATION FOR TREATING CANCER” (FUNDACION UNIVERSITARIA SAN ANTONIO (UCAM), priority 2023, dated 2024)

Experiments:
MCF-7 cells = experiment: MTT colorimetric cytotoxicity assay on MCF-7 cells, single drugs and two-drug combinations, with combination index (CompuSyn); format: cell-based, Human; conditions: for IC50: Homo sapiens, MCF7, read-out: IC50 concentration, which inhibits MCF-7 cell proliferation by 50% compared to control cells, single drug, MCF-7, 72 hours, MTT; for effect of the analog in combination with Doxorubicin on the anticancer activity of Doxorubicin: MCF-7, combination with Doxorubicin; for type of drug interaction with Doxorubicin (combination index): MCF-7
Method: (§1) IC50 values were calculated using GraphPad Prism software.
(§2) This equation defines "Synergism" (CI < 1), "Additive effect" (CI = 1) and "Antagonism" (CI > 1).

A549 cells = experiment: MTT colorimetric cytotoxicity assay on A549 cells, single drugs and two-drug combinations, with combination index (CompuSyn); format: cell-based; conditions: Homo sapiens, A549, 72 hours, read-out: IC50 value for cancer cell survival
Method: The cancer cell lines (MCF-7, A549 and U-87MG) were cultured as monolayers in Dulbecco's modified Eagle's medium supplemented with 10% (v/v) fetal bovine serum and 1% (v/v) penicillin/streptomycin mixture (10,000 U/mL penicillin and 10 mg/mL streptomycin) in a 100% humidified atmosphere of 5% CO2 and 95% air at 37 °C. […] Cell cultures were kept in the exponential growth phase by regularly passaging cells three times a week with 0.25% trypsin/EDTA mixture.
The cytotoxic activity of the test compounds against cancer cell lines was tested using the standard MTT (3-(4,5-dimethylthiazol-2-yl)-2,5-diphenyltetrazolium bromide) colorimetric assay. […] Briefly, exponentially proliferating cells were seeded into each well of a 96-well microplate (about 5×10^3 cells/well). After 24 hours, test compounds at various concentrations were added to the respective wells, and the cells were incubated for another 72 hours. After incubating the cells with the test compounds, the medium was removed and MTT solution with a final concentration of 0.5 mg/mL was added. After 4 hours of incubation, the MTT solution was replaced with DMSO to dissolve the resulting violet formazan crystals in metabolically viable cells. Plates were gently shaken at room temperature until the formazan was completely dissolved and read at 540 nm using a microplate reader. […] The experiment was repeated at least three times under the same conditions. […] IC50 values were calculated using GraphPad Prism software. […] The test drugs were administered to the cells at the same time.
The combination index (CI) method - a dimensionless quantity used to determine and quantify the type of drug interaction - for binary combinations was calculated using CompuSyn software based on the equation: (CI)x = ((D)1)/((Dx)1) + ((D)2)/((Dx)2) = ((D)1)/((Dm)1 ([(fa)/((1−fa))])^((1)/(m1))) + ((D)2)/((Dm)2 ([(fa)/((1−fa))])^((1)/(m2))) [formula] […]
All data are expressed as mean±standard deviation (SD) and presented as a percentage of control (untreated cells) taken as 100%, n=3 (or more). […]

U-87MG cells = experiment: MTT colorimetric cytotoxicity assay on U-87MG cells, single drugs and two-drug combinations, with combination index (CompuSyn); format: cell-based, Human; conditions: for IC50: Homo sapiens, single drug, U-87MG, 72 hours, MTT, read-out: IC50 value (cell survival)
Method: Glimepiride and its analogs were first prepared as a stock solution in DMSO, and then the drugs were dissolved fresh in culture medium enriched with Tween 80 (final concentration 0.05%).
Human cancer cells (MCF-7, A549 and U-87MG) and normal endothelial cells (HMEC-1) were obtained from American Type Cell Culture (Rockville, MD). The cancer cell lines (MCF-7, A549 and U-87MG) were cultured as monolayers in Dulbecco's modified Eagle's medium supplemented with 10% (v/v) fetal bovine serum and 1% (v/v) penicillin/streptomycin mixture (10,000 U/mL penicillin and 10 mg/mL streptomycin) in a 100% humidified atmosphere of 5% CO2 and 95% air at 37 °C. Normal endothelial cells (HMEC-1) were cultured in MCDB 131 medium supplemented with 10% (v/v) fetal bovine serum, 10 ng/mL EGF, 1 µg/mL hydrocortisone and 1% (v/v) penicillin/streptomycin solution, in a humidified atmosphere of 5% CO2 and 95% air at 37 °C. Cell cultures were kept in the exponential growth phase by regularly passaging cells three times a week with 0.25% trypsin/EDTA mixture.
as §1, §2
All data are expressed as mean±standard deviation (SD) and presented as a percentage of control (untreated cells) taken as 100%, n=3 (or more). Sample size was estimated for Type I and Type II statistical errors of […], respectively. Normality of the data was checked with the Shapiro-Wilk test, and the homogeneity of variance was checked with the Levene or Brown-Forsythe test. The significance of differences between pairs of means was estimated using one-way ANOVA and Tukey's post-hoc test. For each analysis, the post-hoc power of the used tests was checked. Statistical power below 80% was considered a null result, and constructive conclusions were not made. All statistics were calculated using […] (StatSoft, USA) or GraphPad Prism software.

[1] = test system: MDA-MB-231 breast carcinoma cells; conditions: Glibenclamide alone; inhibits G1-S phase progression without cell death or differentiation; cited from earlier work
[2] = Glimepiride analog 100-500 µM in combination with Doxorubicin 0.225, 0.450, 0.900 µM

Structure (SMILES): CCCCCOC(=O)Nc1nc(=O)n([C@@H]2O[C@H](C)[C@@H](O)[C@H]2O)cc1F [CAPE, pentyl N-[1-[(2R,3R,4S,5R)-3,4-dihydroxy-5-methyloxolan-2-yl]-5-fluoro-2-oxopyrimidin-4-yl]carbamate]
- IC50 (MCF-7 cells): 180 nM
- IC50 (A549 cells): 60 nM
- IC50 (U-87MG cells): 40 nM

Structure (SMILES): CCCCNC(=O)NS(=O)(=O)c1ccc(N)cc1 [Carbutamide]
- effect of the analog in combination with Doxorubicin on the anticancer activity of Doxorubicin (MCF-7 cells): beneficial effect

Structure (SMILES): CCCNC(=O)NS(=O)(=O)c1ccc(Cl)cc1 [Chlorpropamide, 1-(4-chlorophenyl)sulfonyl-3-propylurea]
- type of drug interaction with Doxorubicin (combination index) (MCF-7 cells; [2]): strong or very strong synergy
- effect of the analog in combination with Doxorubicin on the anticancer activity of Doxorubicin (MCF-7 cells): beneficial effect

Structure (SMILES): CC(=O)O[C@@]12CO[C@@H]1C[C@H](O)[C@@]1(C)C(=O)[C@H](O)C3=C(C)[C@@H](OC(=O)[C@H](O)[C@@H](NC(=O)OC(C)(C)C)c4ccccc4)C[C@@](O)([C@@H](OC(=O)c4ccccc4)[C@H]21)C3(C)C [DOCE, [(1S,2S,3R,4S,7R,9S,10S,12R,15S)-4-acetyloxy-1,9,12 trihydroxy-15-[(2R,3S)-2-hydroxy-3-[(2-methylpropan-2-yl)oxycarbonylamino]-3 phenylpropanoyl]oxy-10,14,17,17-tetramethyl-11-oxo-6 oxatetracyclo[11.3.1.03,1 0.04, 7]heptadec-13-en-2-yl] benzoate]
- IC50 (MCF-7 cells): 240 nM
- IC50 (A549 cells): 150 nM
- IC50 (U-87MG cells): 80 nM

Structure (SMILES): COc1cccc2c1C(=O)c1c(O)c3c(c(O)c1C2=O)C[C@@](O)(C(=O)CO)C[C@@H]3O[C@H]1C[C@H](N)[C@H](O)[C@H](C)O1 [Doxorubicin, (7S,9S)-7-[(2R,4S,5S,6S)-4-amino-5-hydroxy-6 methyloxan-2-yl]oxy-6,9,11-trihydroxy-9-(2-hydroxyacetyl)-4-methoxy-8,10-dihydro-7H tetracene-5,12-dione]
- U-87MG cell survival (U-87MG cells; 0.52 µM Doxorubicin alone): 75.6%

Structure (SMILES): COc1ccc(Cl)cc1C(=O)NCCc1ccc(S(=O)(=O)NC(=O)NC2CCCCC2)cc1 [Glibenclamide]
- effect in MDA-MB-231 cells [1]: cytostatic effect
- type of drug interaction with Doxorubicin (combination index) (MCF-7 cells; [2]): strong or very strong synergy
- effect of the analog in combination with Doxorubicin on the anticancer activity of Doxorubicin (MCF-7 cells): beneficial effect

Structure (SMILES): Cc1ccc(S(=O)(=O)NC(=O)NN2CC3CCCC3C2)cc1 (centres unmarked) [Gliclazide, 1-(3,3a,4,5,6,6a-hexahydro-1H-cyclopenta[c]pyrrol-2-yl)-3-(4-methylphenyl)sulfonylurea]
- type of drug interaction with Doxorubicin (combination index) (MCF-7 cells; [2]): strong or very strong synergy
- effect of the analog in combination with Doxorubicin on the anticancer activity of Doxorubicin (MCF-7 cells): beneficial effect

Structure (SMILES): CCC1=C(C)CN(C(=O)NCCc2ccc(S(=O)(=O)NC(=O)NC3CCC(C)CC3)cc2)C1=O (centres unmarked) [Glimepiride, 4-ethyl-3-methyl-N-[2-[4-[(4-methylcyclohexyl)carbamoylsulfamoyl]phenyl]ethyl]-5-oxo-2H-pyrrole-1-carboxamide]
- IC50 (MCF-7 cells): 186000 ± 7020 nM
- IC50 (A549 cells): 389000 ± 4490 nM
- IC50 (U-87MG cells): 149000 ± 12200 nM

Structure (SMILES): Cc1cnc(C(=O)NCCc2ccc(S(=O)(=O)NC(=O)NC3CCCCC3)cc2)cn1 [Glipizide, N-[2-[4-(cyclohexylcarbamoylsulfamoyl)phenyl]ethyl]-5-methylpyrazine-2-carboxamide]
- effect of the analog in combination with Doxorubicin on the anticancer activity of Doxorubicin (MCF-7 cells): beneficial effect

Structure (SMILES): COc1ccc2c(c1)C(=O)N(CCc1ccc(S(=O)(=O)NC(=O)NC3CCCCC3)cc1)C(=O)C2(C)C [Gliquidone]
- type of drug interaction with Doxorubicin (combination index) (MCF-7 cells; 100 µM analog in combination with Doxorubicin 0.225, 0.450, 0.900 µM): additive effect or slight antagonism
- type of drug interaction with Doxorubicin (combination index) (MCF-7 cells; [2]): not every combination of concentrations of Doxorubicin and Gliquidone produce a synergistic effect
- effect of the analog in combination with Doxorubicin on the anticancer activity of Doxorubicin (MCF-7 cells): beneficial effect
- type of drug interaction with Doxorubicin (combination index) (MCF-7 cells; other dose combinations (analog above 100 µM) with Doxorubicin): synergistic effects

Structure (SMILES): Cc1ccc(S(=O)(=O)NC(=O)NN2CCCCCC2)cc1 [Tolazamide, 1-(azepan-1-yl)-3-(4-methylphenyl)sulfonylurea]
- type of drug interaction with Doxorubicin (combination index) (MCF-7 cells; [2]): strong or very strong synergy
- effect of the analog in combination with Doxorubicin on the anticancer activity of Doxorubicin (MCF-7 cells): beneficial effect

Structure (SMILES): CCCCNC(=O)NS(=O)(=O)c1ccc(C)cc1 [Tolbutamide, 1-butyl-3-(4-methylphenyl)sulfonylurea]
- effect of the analog in combination with Doxorubicin on the anticancer activity of Doxorubicin (MCF-7 cells): beneficial effect
